Measured values from patent US20110201656A1, “NOVEL DIPHENYL 1,2,3-TRIAZOLE DERIVATIVES USEFUL AS MODULATORS OF NICOTINIC ACETYLCHOLINE RECEPTORS” (NEUROSEARCH A/S, priority 2008, published 2011).

Key:
[1] = target: T1, wild-type nAChR α7 receptors (Homo sapiens, UniProt P36544); assay: Positive modulation of nAChR α7 currents in Xenopus laevis oocytes (two-electrode voltage clamp); type: cell-based; conditions: nAChR α7 expressed in Xenopus laevis oocytes, clamped at −60 mV, 100 μM acetylcholine; for Emax: (test-control)/control×100%, read-out: calculated EC50 Imax (maximal modulation of the control response); for EC50: test compound 0.01-31.6 μM, read-out: calculated EC50 (positive modulation of acetylcholine-induced current)
T1 construct: expressed in transfected cells; host or cells: Xenopus laevis oocytes
T1 sequence (P36544 23-502): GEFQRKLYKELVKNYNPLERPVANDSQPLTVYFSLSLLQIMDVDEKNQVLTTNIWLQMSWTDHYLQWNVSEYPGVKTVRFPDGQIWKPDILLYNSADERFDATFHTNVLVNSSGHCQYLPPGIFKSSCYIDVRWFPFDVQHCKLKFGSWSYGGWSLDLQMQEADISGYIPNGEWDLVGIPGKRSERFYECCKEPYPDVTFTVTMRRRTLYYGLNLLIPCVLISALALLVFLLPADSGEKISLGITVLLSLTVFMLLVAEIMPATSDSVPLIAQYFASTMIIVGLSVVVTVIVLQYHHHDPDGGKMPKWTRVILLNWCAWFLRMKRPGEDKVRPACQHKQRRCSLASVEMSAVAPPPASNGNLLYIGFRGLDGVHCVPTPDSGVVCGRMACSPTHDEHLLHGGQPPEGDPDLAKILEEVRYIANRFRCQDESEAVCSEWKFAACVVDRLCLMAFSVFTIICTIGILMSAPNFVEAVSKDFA
Description: In this example the positive modulation of wild-type nAChR α7 receptors by Compounds 3, 7 and 8, representative of the invention, was determined using nAChR a7 receptors heterologously expressed in Xenopus laevis oocytes.
The electrical current through the nAChR α7 channel was measured using conventional two-electrode voltage clamp and nAChR α7 currents were activated by applying pulses of agonist-containing solution onto the nAChR α7 expressing oocyte.
In brief, the oocytes were placed in a recording chambers and continuously super-fused with an Oocyte Ringer (OR) solution containing 90 mM NaCl, 2.5 mM KCl, 2.5 mM CaCl2, 1 mM MgCl2 and 5 mM HEPES (pH adjusted to 7.4). The oocytes were clamped at −60 mV and currents were induced by applying 20 s pulses of 100 μM acetylcholine dissolved in OR. The intervals between the acetylcholine applications were 5 minutes, during which the oocytes were washed with OR. The first three applications were control applications to insure a constant response level of 100 μM acetylcholine. For the subsequent test applications, increasing concentrations (0.01-31.6 μM) of the test compound were applied 30 s before and during the acetylcholine (100 μM) application, which caused a robust increase in the acetylcholine-induced current amplitude.
The positive modulation in the presence of Compound 4 was calculated as (test-control)/control×100% and the concentration response curve for this positive modulation was fitted to the sigmoidal logistic equation: I=Imax/(1+(EC50/[compound])^n), where Imax represents the maximal modulation of the control response, EC50 is the concentration causing a half maximal response, and n is the slope coefficient.

Row | SMILES | melting point | Emax [1] | EC50 [1]
1 | COc1ccc(-c2nnn(-c3ccc(C(F)(F)F)cc3F)c2C)cc1 [Compound 1, 1-(2-Fluoro-4-trifluoromethyl-phenyl)-4-(4-methoxy-phenyl)-5-methyl-1H-[1,2,3]triazole] | 96.5 to 98.9 °C | – | –
2 | Cc1c(-c2ccc(O)cc2)nnn1-c1ccc(C(F)(F)F)cc1Cl [Compound 3, 4-[1-(2-Chloro-4-trifluoromethyl-phenyl)-5-methyl-1H-[1,2,3]triazol-4-yl]-phenol] | – | 119% | 14 µM
3 | COc1ccc(-c2nnn(-c3ccc(C(F)(F)F)cc3Cl)c2CO)cc1 [Compound 7, [3-(2-Chloro-4-trifluoromethyl-phenyl)-5-(4-methoxy-phenyl)-3H-[1,2,3]triazol-4-yl]-methanol] | – | 128% | 17 µM
4 | OCc1c(-c2ccc(O)cc2)nnn1-c1ccc(C(F)(F)F)cc1Cl [Compound 8, 4-[1-(2-Chloro-4-trifluoromethyl-phenyl)-5-hydroxymethyl-1H-[1,2,3]triazol-4-yl]-phenol] | – | 136% | 11 µM
